Format in all cases: cell-based
Experiment [1] concerns human keratinocytes. In words: Ascorbate uptake assay (14C-ascorbic acid) in keratinocytes. The method, then: Normal human keratinocytes, isolated from neonatal foreskin by trypsin treatment, were grown in Dulbecco's Modified Eagles Medium (DMEM, Life Technologies. Grand Island, New York) with 10% fetal bovine serum in the 10 presence of irradiated mouse fibroblasts for establishing dividing keratinocyte colonies. Cells were incubated until their second passage and stored at -70 ° C. for future use. All incubations took place at 37 ° C. with 5% CO2. Frozen second passage keratinocytes were thawed and plated in T-175 flasks (Corning. Corning, N.Y.) with DMEM and grown for five days. After reaching 80% confluence, they were trypsinized and seeded into 6-well plates containing keratinocyte growth medium (KGM, Clonetics, San Diego, Calif.) with 0.15 mM calcium. For this experiment, third passage keratinocytes were plated into a KGM medium (Clonetics, Calif.) containing 0.15 mM calcium. […] Cells were then switched into fresh KBM and were treated with 5% cumic alcohol administered in corn oil (dosed 10 μl corn oil+active at indicated concentration/2 ml media). After 4 hours of incubation, 0.1 μCi/ml of L-^14C-1-ascorbic acid (Amersham, UK) and 50 units of ascorbic oxidase (Sigma) were added to each well and further incubated for 1 hour. The medium was aspirated and wells were rinsed 3 times with PBS before addition of 500 μl of 0.1N NaOH/well. After 10 minutes of agitation on shaker, 25 μL aliquot was removed for protein analysis, and 200 μl were transferred to scintillation vials containing 5 ml of […]. The counting was performed on a Beckman counter (model LS 5801). Ascorbic acid uptake results were expressed as CPM /μg protein. Concentrations used in the examples below are of cumic alcohol in a corn oil droplet. The in vitro concentration may not be relevant to in vivo concentration because there is partitioning between oil and culture medium and the medium concentration of the active is not The oil droplet concentration of the active. […]

Experiment [2] has as its system human keratinocytes. In words: Glucose uptake assay (3H 2-deoxy-glucose) in keratinocytes. As for the experimental part:
Normal human keratinocytes, isolated from neonatal foreskin by trypsin treatment, were grown in Dulbecco's Modified Eagles Medium (DMEM, Life Technologies. Grand Island, New York) with 10% fetal bovine serum in the 10 presence of irradiated mouse fibroblasts for establishing dividing keratinocyte colonies. Cells were incubated until their second passage and stored at −70 ° C. for future use. All incubations took place at 37 ° C. with 5% CO2. Frozen second passage keratinocytes were thawed and plated in T−175 flasks (Corning. Corning, N.Y.) with DMEM and grown for five days. After reaching 80% confluence, they were trypsinized and seeded into 6-well plates containing keratinocyte growth medium (KGM, Clonetics, San Diego, Calif.) with 0.15 mM calcium. Keratinocytes were plated in KGM medium at either 0.5 or 1 million cells/plate in six well plates and incuoated for 4 days. The medium was then aspirated, and the wells were rinsed twice with Phosphate Buffered Saline (PBS), then the plates were incubated (1 mL/well) for 24 hours. The medium was replaced with fresh KBM, 10 ul of corn oil containing cumic alcohol at various concentrations were added and cells were allowed to incubate (for 4 hours at 37C) before 2 μCi of ^3H 2-deoxy-glucose (Amersham, UK) were added to each well. Samples were then incubated for one hour. The medium was aspirated and wells were rinsed three times with PBS before the addition of 500 μL of 0.1N NaOH/well. After 10 minutes of agitation on a shaker, a 25 μL aliquot was removed for protein analysis, and 200 μL were transferred to a scintillation vial containing 5mL Scintillation cocktail (Scintiverse) and counting was performed on a Beckman counter, ^3H-Glucose uptake results were expressed as CPM/μg protein. Concentrations used in the examples below are of cumic alcohol in a corn oil droplet. The in vitro concentration may not be relevant to in vivo concentration because there is partitioning between oil and culture medium and the medium concentration of the active is not The oil droplet concentration of the active. For the cumic alcohol to elicit its effect on the cultured cells, it must diffuse out of the corn oil into the culture medium where it is then accessible to the cells. The cumic alcohol concentration in the culture medium is therefore considerably less than the concentration in the corn oil droplet.

In experiment [3] the test system is human keratinocytes. The experiment is described as follows: Lipid analysis (ceramides, TLC densitometry) in keratinocytes.
The test system of experiment [4] is human keratinocytes. The experiment is described as follows: Transglutaminase (TG-1) assay in keratinocytes. The method, then: Normal human keratinocytes, isolated from neonatal foreskin by trypsin treatment, were grown in Dulbecco's Modified Eagles Medium (DMEM, Life Technologies. Grand Island, New York) with 10% fetal bovine serum in the 10 presence of irradiated mouse fibroblasts for establishing dividing keratinocyte colonies. Cells were incubated until their second passage and stored at −70 ° C. for future use. All incubations took place at 37 ° C. with 5% CO2. Frozen second passage keratinocytes were thawed and plated in T−175 flasks (Corning. Corning, N.Y.) with DMEM and grown for five days. After reaching 80% confluence, they were trypsinized and seeded into 6-well plates containing keratinocyte growth medium (KGM, Clonetics, San Diego, Calif.) with 0.15 mM calcium. Keratinocytes were placed in KGM (2 ml per well) at 0.2 million cells/plate in 6-well plates and grown for four or five days until the cells reached approximately 20% confluence. […] One set of triplicate wells was left untreated to serve as control. After three days of incubation, cells were washed thoroughly with phosphate buffered saline (PBS, 10 mM sodium phosphate, 138 mM sodium choride, 2.7 mM potassium chloride, pH 7.4) and placed at −70 °C. for 2 hours. Cells were then thawed for two hours. The DNA content of cells was quantified by using the DNA-binding fluorophore, bis-benzimidazole (Hoechst 33258) and measuring the specific fluoroescence of the DNA-bound fluorophore (360 nm excitation, 450 nm emission). Cellular TG-1 levels were determined by using a transglutaminase-1 (TG-1) specific monoclonal antibody as the primary antibody (BC1, Amersham, UK) and a peroxidase labeled rabbit antimouse IgG as the secondary antibody (Amersham, UK). The plates were blocked at room temperature with 5% nonfat milk in Tris-buffered saline (TBS, 10 mM Tris, 150 mM NaCL, pH 8.0) for one hour followed by two hours incubation with the primary antibody (1:4000 dilution) in 1% milk/TBS at room temperature. After rinsing the plates three times with 1% milk/TDS containing […] Tween 20 (Bio-Rad, Hercules, Calif.), the plates were incubated with a 1:4000 dilution of the secondary antibody at room temperature for two hours. The plates were then rinsed three times with 1% milk/0.05% Tween 20/TBS and three times with PBS. Color was developed by incubation with o-phenylene-diamine (Sigma, St. Louis. Mo.) and hydrogen peroxide (Sigma) dissolved in a 1:1 mixture of 0.2 M dibasic sodium phosphate (Sigma) and 0.1 M citric acid at pH 5.0(Sigma). Solutions were transferred to 4 ml plastic cuvets (Fisher Scientific, Pittsburgh Pa.) and the absorbance was read at 492 nm on an Ultraspec 3000 spectrophotometer (Pharmacia, Piscataway N.J.) and TG-1 levels were expressed as absorbence/DNA fluorescence. Concentrations used in the examples below are of cumic alcohol in a corn oil droplet. The in vitro concentration may not be relevant to in vivo concentration because there is partitioning between oil and culture medium and the medium concentration of the active is not The oil droplet concentration of the active. For the cumic alcohol to elicit its effect on the cultured cells, it must diffuse out of the corn oil into the culture medium where it is then accessible to the cells. The cumic alcohol concentration in the culture medium is therefore considerably less than the concentration in the corn oil droplet.

[5] abbreviates: Example 2, Experiment 1, cumic alcohol 2.5% in corn oil.
[6] abbreviates: Example 2, Experiment 1, cumic alcohol 5% in corn oil.
Setting [7] is: Example 2, Experiment 2, cumic alcohol 2.5% in corn oil.
The mark [8] stands for this setting: Example 2, cumic alcohol at 2.5 and 5%.
[9] abbreviates: Example 4, inactivity at lower concentrations.

Consider `CC(C)c1ccc(CO)cc1` [CUMIC ALCOHOL, p-isopropylbenzyl alcohol], for which, in experiment [1] (cumic alcohol 5% in corn oil), the “ascorbate uptake % of CONTROL” value was found to be 129%. For the same compound, in experiment [1] (cumic alcohol 5% in corn oil (10 ul/2 ml media), 4 h preincubation, 1 h uptake), the “ascorbate uptake CPM/WELL” value is listed as 17235 +− CPM/WELL. For the same compound, the “uptake of ascorbate in comparison to untreated control cells (in words)” value in experiment [1] (cumic alcohol at 5% in corn oil) is on record as “significantly increased uptake”. For the same compound, the “glucose uptake % OF CONTROL” value in experiment [2] (cumic alcohol 1% in corn oil droplet) is reported as 107%; in experiment [2] (cumic alcohol 2.5% in corn oil droplet) it was 185%; in experiment [2] (cumic alcohol 5% in corn oil droplet), 206%. The “glucose uptake CPM/ug PROTEIN” value in experiment [2] (cumic alcohol 5% in corn oil droplet (10 ul), 4 h preincubation, 1 h uptake) is on record as 40.67 CPM/ug PROTEIN. The “ceramides % of CONTROL” value in experiment [3] (setting [5]) is listed as 67%; in experiment [3] (setting [6]) it was 156%; in experiment [3] (setting [7]) it was 166%; in experiment [3] (Example 2, Experiment 2, cumic alcohol 5% in corn oil) it was 185%. Also, in experiment [3] (setting [8]), the “expression of ceramides in comparison to untreated control cells (in words)” value is reported as “increased expression”. For the same compound, in experiment [3] (setting [9]), the “ceramide production (in words)” value was “significant increase”. Besides, the “TG-1 % of CONTROL” value in experiment [4] (setting [5]) came out at 117%; in experiment [4] (setting [6]), 180%; in experiment [4] (setting [7]) it was 145%; in experiment [4] (Example 4, cumic alcohol 1% in corn oil), 127%; in experiment [4] (Example 4, cumic alcohol 2.5% in corn oil), 174%; in experiment [4] (Example 4, cumic alcohol 5% in corn oil), 205%. Further, in experiment [4] (setting [8]), the “expression of transglutaminase-1 in comparison to untreated control cells (in words)” value is “increased expression”. The “transglutaminase-1 expression (in words)” value in experiment [4] (setting [9]) was “significant increase”.
